Our source for the KI (inactivation) values is publication PMC11812085, “Structural Dynamics of the Ubiquitin Specific Protease USP30 in Complex with a Cyanopyrrolidine-Containing Covalent Inhibitor” (Journal of Proteome Research, 2025).

The target of the test is T1, USP30 (ubiquitin specific protease 30) (Homo sapiens, UniProt Q70CQ3, DEL179-216/DEL288-305).
T1 construct: residues 64-502Δ179-216 and 288-305
T1 sequence (Q70CQ3 with tags, fused parts or gaps DEL179-216/DEL288-305): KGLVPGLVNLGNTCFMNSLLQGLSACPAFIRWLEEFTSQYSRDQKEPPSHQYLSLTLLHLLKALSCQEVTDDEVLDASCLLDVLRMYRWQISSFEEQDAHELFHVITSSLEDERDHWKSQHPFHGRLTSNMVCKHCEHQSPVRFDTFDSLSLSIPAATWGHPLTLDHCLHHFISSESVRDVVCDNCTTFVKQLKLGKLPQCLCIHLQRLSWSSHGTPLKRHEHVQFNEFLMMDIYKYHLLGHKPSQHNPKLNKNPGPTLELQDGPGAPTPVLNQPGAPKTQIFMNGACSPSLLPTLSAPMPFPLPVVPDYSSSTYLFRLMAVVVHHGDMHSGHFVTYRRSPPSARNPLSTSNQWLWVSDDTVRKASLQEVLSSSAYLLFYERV
In words: RapidFire MS of covalent complex and HDX-MS on recombinant USP30; KI from kinact/KI kinetics with Ub-rhodamine (IC50 […] after […] min preincubation; […] in SH-SY5Y lysate ABPP). It counts as biochemical.

For `C[C@@H]1C[C@@H](NC(=O)c2ncc(-c3cccc(C#N)c3)o2)CN1C#N` [USP30-I-1], the KI (inactivation) was about 350 nM.
